Key:
Conditions in all cases: exposure time 48 h
[1] = test system: Caenorhabditis elegans N2; assay: AC50 for larval growth inhibition (Hill fit); higher = less potent
Method in brief: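 C. elegans N2 L1 larvae, synchronised and plated at 50 per well in 96-well plates, were exposed for 48 h at 20°C to 0.5–200 µM chemical in K-medium with killed OP50 and 1% DMSO. Log-transformed extinction from a COPAS Biosort served as worm size, averaged per well. Wells containing at least 10 worms entered the fit. A constrained Hill fit by weighted genetic-algorithm regression yielded the AC50, censored when out of range.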

[2] = test system: Caenorhabditis elegans N2; assay: mean nematode size ln(EXT) after 48 h, plate-adjusted (DMSO control set to 6) (ln(EXT), control-adjusted); higher = larger nematodes / less growth inhibition
Method in brief: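 Synchronised C. elegans N2 L1 larvae were grown for 48 h at 20°C in K-medium containing killed OP50, 1% DMSO and 0.5–200 µM chemical, at 50 per well and 4–6 wells per treatment. The Biosort recorded extinction for each worm, and a growth model removed debris. Worm size was obtained by natural-logging these values and averaging them per well. For plate adjustment, the vehicle control mean was subtracted and 6 was added.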

[3] = test system: Caenorhabditis elegans N2; assay: lowest effective concentration for larval growth inhibition (size below effect threshold); higher = less potent
Method in brief: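 Worm size was taken as per-worm extinction on the Biosort, log-transformed and turned into well means. The larvae (C. elegans N2, L1 stage, 50 per 96-well) had spent 48 h at 20°C in K-medium with killed bacteria, 1% DMSO and 0.5, 1, 5, 10, 50, 100 or 200 µM chemical. The lowest effective concentration marks the first dose where the plate-adjusted mean size drops under a cutoff and remains under it at every higher dose; the cutoff is 5.665.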

| Structure (SMILES) | AC50 for larval growth inhibition [1] [µM] | mean nematode size ln(EXT) (ln) ([2]; 0.5 µM) | mean nematode size ln(EXT) (ln) ([2]; 1 µM) | mean nematode size ln(EXT) (ln) ([2]; 5 µM) | mean nematode size ln(EXT) (ln) ([2]; 10 µM) | mean nematode size ln(EXT) (ln) ([2]; 50 µM) | mean nematode size ln(EXT) (ln) ([2]; 100 µM) | mean nematode size ln(EXT) (ln) ([2]; 200 µM) | lowest effective concentration [3] [µM] |
| --- | --- | --- | --- | --- | --- | --- | --- | --- | --- |
| O=S1OCC2C(CO1)C1(Cl)C(Cl)=C(Cl)C2(Cl)C1(Cl)Cl (stereo not given) [Endosulfan] | 6.12 | 5.74 | 5.72 | 5.08 | 3.84 | 3.51 | 3.24 | 3.47 | 5 |
| O=C(O)[C@@H]1[C@H](C(=O)O)[C@H]2CC[C@@H]1O2 [Endothal] | > 200 | 5.86 | 5.85 | 5.91 | 5.82 | 5.56 | 5.71 | 5.15 | 200 |
| ClC1=C(Cl)C2(Cl)C3C4CC(C5OC45)C3C1(Cl)C2(Cl)Cl (stereo not given) [Endrin] | 8.83 | 5.93 | 5.85 | 4.99 | 4.95 | 3.81 | 3.9 | 3.75 | 5 |
| CC(C)[C@H](C(=O)O[C@H](C#N)c1cccc(Oc2ccccc2)c1)c1ccc(Cl)cc1 [Esfenvalerate] | > 200 | 5.76 | 5.83 | 5.9 | 5.73 | 5.74 | 5.76 | 5.64 | 200 |
| C=C(C)CN(CC)c1c([N+](=O)[O-])cc(C(F)(F)F)cc1[N+](=O)[O-] [Ethalfluralin] | 141 | 5.89 | 6.05 | 5.94 | 5.8 | 6.1 | 5.98 | 4.85 | 200 |
| CCOP(=S)(OCC)SCSP(=S)(OCC)OCC [Ethion] | 99.2 | 5.78 | 5.62 | 5.28 | 5.04 | 4.93 | 4.85 | 4.06 | 1 |
| CCOC1Oc2ccc(OS(C)(=O)=O)cc2C1(C)C (stereo not given) [Ethofumesate] | 198 | 6.01 | 6.03 | 6.14 | 6.03 | 6.14 | 6.11 | 5.44 | 200 |
| CCCSP(=O)(OCC)SCCC [Ethoprop] | 76.3 | 5.83 | 5.78 | 5.68 | 5.55 | 4.81 | 4.35 | 4.19 | 10 |
| CCOc1ccc2c(c1)C(C)=CC(C)(C)N2 [Ethoxyquin] | > 200 | 5.78 | 5.74 | 5.77 | 5.78 | 5.71 | 5.61 | 5.17 | 100 |
| OCCO [Ethylene glycol] | > 200 | 5.79 | 5.77 | 5.77 | 5.78 | 5.72 | 5.63 | 5.65 | 100 |
| CCOc1ccc(C(C)(C)COCc2cccc(Oc3ccccc3)c2)cc1 [Etofenprox] | 52.2 | 5.87 | 5.88 | 5.91 | 5.71 | 5.81 | 5.39 | 5.47 | 100 |
| CCOc1cc(C(C)(C)C)ccc1C1COC(c2c(F)cccc2F)=N1 (stereo not given) [Etoxazole] | 2.3 | 5.74 | 5.16 | 4.48 | 4.32 | 4.37 | 3.91 | 3.44 | 1 |
| Cc1oc(-c2ccccc2)nc1CCOc1ccc(C[C@H](Nc2ccccc2C(=O)c2ccccc2)C(=O)O)cc1 [Farglitazar] | 39 | 5.87 | 5.89 | 5.92 | 6.19 | 4.95 | 4.73 | 4.48 | 50 |
| Cc1cc(N=Nc2ccccc2C)ccc1N [Fast Garnet GBC base] | 14.9 | 5.83 | 5.71 | 5.55 | 5.5 | 3.45 | 3.57 | 3.77 | 5 |
| CSC1=N[C@@](C)(c2ccccc2)C(=O)N1Nc1ccccc1 [Fenamidone] | 105 | 5.9 | 5.9 | 5.86 | 5.96 | 6.02 | 5.83 | 5.41 | 200 |
| CN(C)c1ccc(N=NS(=O)(=O)O)cc1 [Fenaminosulf] | 54.8 | 5.95 | 5.88 | 5.79 | 5.86 | 4.72 | 3.9 | 3.5 | 50 |
| CCOP(=O)(NC(C)C)Oc1ccc(SC)c(C)c1 (stereo not given) [Fenamiphos] | 90.9 | 5.54 | 5.56 | 5.32 | 5.31 | 4.93 | 4.49 | 4.15 | ≤ 0.5 |
| OC(c1ccc(Cl)cc1)(c1cncnc1)c1ccccc1Cl (stereo not given) [Fenarimol] | 59.8 | 6.14 | 6.17 | 6.07 | 5.92 | 5.21 | 3.58 | 3.32 | 50 |
| N#CC(CCc1ccc(Cl)cc1)(Cn1cncn1)c1ccccc1 (stereo not given) [Fenbuconazole] | 177 | 6.18 | 6.1 | 6.07 | 5.65 | 5.13 | 5.27 | 4.39 | 10 |
| CC1(C(=O)Nc2ccc(O)c(Cl)c2Cl)CCCCC1 [Fenhexamid] | 112 | 5.86 | 5.87 | 5.88 | 5.96 | 6 | 5.86 | 4.71 | 200 |
| COP(=S)(OC)Oc1ccc([N+](=O)[O-])c(C)c1 [Fenitrothion] | 37 | 5.97 | 5.72 | 5.6 | 5.46 | 4.49 | 3.96 | 4.09 | 5 |
| CC(C)OC(=O)C(C)(C)Oc1ccc(C(=O)c2ccc(Cl)cc2)cc1 [Fenofibrate] | 121 | 5.83 | 5.81 | 5.75 | 5.61 | 5.19 | 4.62 | 4.22 | 10 |
| CCOC(=O)C(C)Oc1ccc(Oc2nc3ccc(Cl)cc3o2)cc1 (stereo not given) [Fenoxaprop-ethyl] | 76.3 | 5.83 | 6.04 | 6 | 5.97 | 5.68 | 5.4 | 5.18 | 100 |

| Structure (SMILES) | AC50 for larval growth inhibition [1] [µM] | mean nematode size ln(EXT) (ln) ([2]; 0.5 µM) | mean nematode size ln(EXT) (ln) ([2]; 1 µM) | mean nematode size ln(EXT) (ln) ([2]; 5 µM) | mean nematode size ln(EXT) (ln) ([2]; 10 µM) | mean nematode size ln(EXT) (ln) ([2]; 50 µM) | mean nematode size ln(EXT) (ln) ([2]; 100 µM) | mean nematode size ln(EXT) (ln) ([2]; 200 µM) | lowest effective concentration [3] [µM] |
| --- | --- | --- | --- | --- | --- | --- | --- | --- | --- |
| CCOC(=O)NCCOc1ccc(Oc2ccccc2)cc1 [Fenoxycarb] | 37.2 | 5.96 | 5.87 | 5.9 | 5.59 | 4.47 | 4.1 | 3.72 | 10 |
| CC1(C)C(C(=O)OC(C#N)c2cccc(Oc3ccccc3)c2)C1(C)C (stereo not given) [Fenpropathrin] | > 200 | 5.91 | 5.81 | 5.77 | 5.93 | 5.22 | 5.22 | 4.68 | 50 |
| COP(=S)(OC)Oc1ccc(SC)c(C)c1 [Fenthion] | 34.4 | 5.69 | 5.64 | 5.43 | 5.36 | 5.09 | 5.11 | 4.92 | 1 |
| N#Cc1nn(-c2c(Cl)cc(C(F)(F)F)cc2Cl)c(N)c1[S+]([O-])C(F)(F)F (stereo not given) [Fipronil] | > 200 | 5.96 | 5.84 | 5.92 | 5.65 | 5.59 | 5.52 | 5.17 | 10 |
| CCCCOC(=O)[C@@H](C)Oc1ccc(Oc2ccc(C(F)(F)F)cn2)cc1 [Fluazifop-P-butyl] | 98.7 | 6.18 | 6.51 | 6.31 | 6.37 | 6.22 | 5.52 | 4.99 | 100 |
| CCCCOC(=O)C(C)Oc1ccc(Oc2ccc(C(F)(F)F)cn2)cc1 (stereo not given) [Fluazifop-butyl] | 191 | 6.21 | 6.17 | 6.11 | 6.18 | 5.87 | 5.5 | 4.66 | 100 |
| O=[N+]([O-])c1cc(C(F)(F)F)c(Cl)c([N+](=O)[O-])c1Nc1ncc(C(F)(F)F)cc1Cl [Fluazinam] | 31.6 | 6.05 | 6.17 | 5.81 | 6.15 | 3.61 | 3.85 | 3.23 | 50 |
| OC(Cn1cncn1)(Cn1cncn1)c1ccc(F)cc1F [Fluconazole] | > 200 | 6.08 | 6.04 | 6.06 | 6.09 | 6.01 | 5.99 | 5.56 | 200 |
| N#Cc1c[nH]cc1-c1cccc2c1OC(F)(F)O2 [Fludioxonil] | 101 | 6.15 | 6.03 | 6.08 | 6.01 | 6.06 | 5.27 | 4.42 | 100 |
| CC(C)N(C(=O)COc1nnc(C(F)(F)F)s1)c1ccc(F)cc1 [Flufenacet] | 21.5 | 5.91 | 5.94 | 6.03 | 6.05 | 5.45 | 6.04 | 5.52 | 200 |
| CCOC(=O)COc1cc(-n2ncc(C(F)(F)F)c(C)c2=O)c(F)cc1Cl [Flufenpyr-ethyl] | > 200 | 5.85 | 5.76 | 5.8 | 5.87 | 5.88 | 5.91 | 5.57 | 200 |
| CCN(Cc1c(F)cccc1Cl)c1c([N+](=O)[O-])cc(C(F)(F)F)cc1[N+](=O)[O-] [Flumetralin] | 180 | 6.16 | 6.01 | 6 | 6.02 | 6.1 | 6.11 | 3.65 | 200 |
| CCCCCOC(=O)COc1cc(N2C(=O)C3=C(CCCC3)C2=O)c(F)cc1Cl [Flumiclorac-pentyl] | > 200 | 5.98 | 6.04 | 6.02 | 5.91 | 5.69 | 5.6 | 4.54 | 100 |
| c1ccc2c(c1)-c1cccc3cccc-2c13 [Fluoranthene] | 9.33 | 5.79 | 5.87 | 5.65 | 5.05 | 4.05 | 3.8 | 4.82 | 5 |
| CO/N=C(/C1=NOCCO1)c1ccccc1Oc1ncnc(Oc2ccccc2Cl)c1F [Fluoxastrobin] | > 200 | 5.86 | 5.94 | 6.05 | 6.07 | 5.65 | 5.6 | 5.12 | 50 |
| Cn1cc(-c2ccccc2)c(=O)c(-c2cccc(C(F)(F)F)c2)c1 [Fluridone] | 52 | 6 | 5.95 | 5.96 | 5.88 | 5.69 | 4.25 | 5.6 | 100 |
| CCCCCCC(C)OC(=O)COc1nc(F)c(Cl)c(N)c1Cl (stereo not given) [Fluroxypyr-meptyl] | 185 | 5.84 | 5.84 | 6.02 | 5.94 | 5.83 | 6.29 | 4.64 | 200 |
| Nc1c(Cl)c(F)nc(OCC(=O)O)c1Cl [Fluroxypyr] | > 200 | 5.6 | 5.62 | 5.73 | 5.61 | 5.75 | 5.78 | 5.64 | 200 |
| C[Si](Cn1cncn1)(c1ccc(F)cc1)c1ccc(F)cc1 [Flusilazole] | 43.2 | 5.73 | 5.67 | 5.55 | 5.53 | 4.57 | 3.63 | 3.47 | 5 |
| CC(C)C(=O)Nc1ccc([N+](=O)[O-])c(C(F)(F)F)c1 [Flutamide] | 112 | 5.89 | 5.88 | 5.89 | 5.62 | 4.96 | 4.82 | 4.05 | 10 |
| CC(C)Oc1cccc(NC(=O)c2ccccc2C(F)(F)F)c1 [Flutolanil] | 192 | 5.94 | 5.98 | 6.08 | 6.01 | 5.5 | 6.3 | 5.43 | 200 |
| O=C1c2ccccc2C(=O)N1SC(Cl)(Cl)Cl [Folpet] | > 200 | 5.89 | 5.98 | 5.57 | 5.84 | 5.53 | 5.55 | 5.09 | 50 |

From the supplement of paper PMC4858399
